Here are results for 17 compounds from ChEMBL document CHEMBL4665713, “Synthesis and biological evaluation of novel quinazoline-triazole hybrid compounds with potential use in Alzheimer's disease” (Bioorg Med Chem Lett, 2020).

Some results are limits rather than exact numbers.

For the first assay, the target named is Acetylcholinesterase (Electrophorus electricus, UniProt O42275). The experiment in a line: Inhibition of electric eel AChE using acetylthiocholine iodide as substrate preincubated with enzyme for 10 mins prior to substrate addition and measured for 6 mins by Ellman's method. (In general: DTNB colorimetry detects thiols as they appear.)
Chain of Acetylcholinesterase (Electrophorus electricus, UniProt O42275) (O42275 whole entry): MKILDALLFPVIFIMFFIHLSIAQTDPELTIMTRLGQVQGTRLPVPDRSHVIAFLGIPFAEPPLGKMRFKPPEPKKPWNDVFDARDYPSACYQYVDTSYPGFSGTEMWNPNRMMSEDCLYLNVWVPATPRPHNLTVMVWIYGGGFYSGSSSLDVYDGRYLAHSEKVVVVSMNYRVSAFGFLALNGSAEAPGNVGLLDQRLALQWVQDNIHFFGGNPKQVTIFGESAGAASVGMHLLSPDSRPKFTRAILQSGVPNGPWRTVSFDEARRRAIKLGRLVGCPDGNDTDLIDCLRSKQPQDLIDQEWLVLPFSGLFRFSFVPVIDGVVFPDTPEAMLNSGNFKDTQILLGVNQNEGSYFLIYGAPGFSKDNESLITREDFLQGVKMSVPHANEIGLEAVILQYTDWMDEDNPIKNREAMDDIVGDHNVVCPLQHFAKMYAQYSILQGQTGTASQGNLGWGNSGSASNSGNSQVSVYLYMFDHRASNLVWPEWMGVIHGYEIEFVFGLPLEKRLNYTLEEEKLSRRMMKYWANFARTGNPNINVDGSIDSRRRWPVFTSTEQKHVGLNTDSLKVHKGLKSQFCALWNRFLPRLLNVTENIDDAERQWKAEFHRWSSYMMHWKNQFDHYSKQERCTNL
In the case of `Cc1ccc(Cn2cc(Oc3ccc4cc(C(=O)NC5CCN(Cc6ccccc6)CC5)c(=O)oc4c3)nn2)cc1C`, inhibition was half-maximal at 1.8 µM (IC50).

Another assay addresses T1, Acetylcholinesterase (Rattus norvegicus, UniProt P37136).
T1 sequence (P37136 whole entry): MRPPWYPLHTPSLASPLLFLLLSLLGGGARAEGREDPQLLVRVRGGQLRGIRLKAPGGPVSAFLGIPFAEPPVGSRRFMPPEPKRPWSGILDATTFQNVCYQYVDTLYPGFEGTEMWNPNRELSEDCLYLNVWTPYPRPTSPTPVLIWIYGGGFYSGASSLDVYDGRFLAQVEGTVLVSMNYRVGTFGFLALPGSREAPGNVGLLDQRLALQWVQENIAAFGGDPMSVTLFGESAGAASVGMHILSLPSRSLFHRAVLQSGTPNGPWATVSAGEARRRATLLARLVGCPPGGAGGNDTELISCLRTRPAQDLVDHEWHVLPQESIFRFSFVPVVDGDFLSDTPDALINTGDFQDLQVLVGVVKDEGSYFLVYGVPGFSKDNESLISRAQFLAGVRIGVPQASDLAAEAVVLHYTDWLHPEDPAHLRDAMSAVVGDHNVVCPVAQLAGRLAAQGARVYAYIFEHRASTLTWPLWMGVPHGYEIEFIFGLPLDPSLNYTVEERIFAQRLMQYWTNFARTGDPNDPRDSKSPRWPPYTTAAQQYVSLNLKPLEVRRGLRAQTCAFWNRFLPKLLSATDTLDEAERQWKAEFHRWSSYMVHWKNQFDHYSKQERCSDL
Description: Inhibition of AChE in rat brain using acetylthiocholine iodide as substrate by Ellman's UV-vis spectrophotometric method. It counts as tissue-based.
Take `C#CCOc1ccc2ncnc(Nc3cccc([N+](=O)[O-])c3)c2c1`: the half-inhibitory concentration (IC50) (in general, the concentration that inhibits the measured activity by half) is above 200 µM.

Compound `O=[N+]([O-])c1ccccc1-n1cc(COc2ccc3ncnc(NCc4ccccc4)c3c2)nn1` returned an IC50 of 0.23 µM.

Compound `O=[N+]([O-])c1ccc(-n2cc(COc3ccc4ncnc(NCc5ccccc5)c4c3)nn2)cc1` gave an IC50 above 200 µM.

For the compound `O=[N+]([O-])c1cccc(Nc2ncnc3ccc(OCc4cn(-c5cccc([N+](=O)[O-])c5)nn4)cc23)c1`, the IC50 was above 200 µM.

`N#Cc1cc(-n2cc(COc3ccc4ncnc(Nc5cccc([N+](=O)[O-])c5)c4c3)nn2)ccc1C(F)(F)F` gave an IC50 above 200 µM.

In the case of `C#CCOc1ccc2ncnc(N3CCN(C)CC3)c2c1`, it took 83.9 µM to reach half-maximal inhibition (IC50).

Take `O=[N+]([O-])c1cccc(Nc2ncnc3ccc(OCc4cn(-c5ccccc5[N+](=O)[O-])nn4)cc23)c1`: the midpoint of inhibition, the IC50, lay at 2.06 µM.

Regarding `N#Cc1cc(-n2cc(COc3ccc4ncnc(NCc5ccccc5)c4c3)nn2)ccc1C(F)(F)F`, the IC50 was above 200 µM.

Regarding `CN1CCN(c2ncnc3ccc(OCc4cn(-c5ccccc5[N+](=O)[O-])nn4)cc23)CC1`, half-maximal inhibition (IC50) was put at 37.4 µM.

The compound `CN1CCN(c2ncnc3ccc(OCc4cn(-c5ccc(C(F)(F)F)c(C#N)c5)nn4)cc23)CC1` displayed an IC50 above 200 µM.

Regarding `CN1CCN(c2ncnc3ccc(OCc4cn(-c5ccc([N+](=O)[O-])cc5)nn4)cc23)CC1`, the IC50 was above 200 µM.

Turning to `C#CCOc1ccc2ncnc(NCc3ccccc3)c2c1`, the IC50 stood at 47.7 µM.

Regarding `O=[N+]([O-])c1ccc(-n2cc(COc3ccc4ncnc(Nc5cccc([N+](=O)[O-])c5)c4c3)nn2)cc1`, the IC50 was above 200 µM.

Compound `CN1CCN(c2ncnc3ccc(OCc4cn(-c5cccc([N+](=O)[O-])c5)nn4)cc23)CC1` had an IC50 of 15.8 µM.

`O=[N+]([O-])c1cccc(-n2cc(COc3ccc4ncnc(NCc5ccccc5)c4c3)nn2)c1`: the IC50 is 1.1 µM.

System in a further assay: not listed separately
Description: Cytotoxicity against human KB-CCL-17 cells assessed as reduction in cell viability by MTT assay. Type of assay: functional, cell-based.
For the compound `Cc1c2ccncc2c(C)c2c1[nH]c1ccccc12` [ELLIPTECINE], the IC50 amounted to 1.1 µM.

On to `O=[N+]([O-])c1ccccc1-n1cc(COc2ccc3ncnc(NCc4ccccc4)c3c2)nn1`, for which the IC50 was 42.7 µM.

Turning to `C#CCOc1ccc2ncnc(N3CCN(C)CC3)c2c1`, the IC50 was above 200 µM.

For the compound `O=[N+]([O-])c1cccc(Nc2ncnc3ccc(OCc4cn(-c5ccccc5[N+](=O)[O-])nn4)cc23)c1`, the IC50 is above 200 µM.

Consider `CN1CCN(c2ncnc3ccc(OCc4cn(-c5ccccc5[N+](=O)[O-])nn4)cc23)CC1`, for which the IC50 is above 200 µM.

For the compound `C#CCOc1ccc2ncnc(NCc3ccccc3)c2c1`, the IC50 was 59.7 µM.

Regarding `CN1CCN(c2ncnc3ccc(OCc4cn(-c5cccc([N+](=O)[O-])c5)nn4)cc23)CC1`, the IC50 was above 200 µM.

On to `O=[N+]([O-])c1cccc(-n2cc(COc3ccc4ncnc(NCc5ccccc5)c4c3)nn2)c1`, for which the IC50 is above 200 µM.

A further assay deals with HepG2. The experiment in a line: Cytotoxicity against human HepG2 cells assessed as reduction in cell viability by MTT assay. It counts as functional, cell-based.
Consider `Cc1c2ccncc2c(C)c2c1[nH]c1ccccc12` [ELLIPTECINE], for which the IC50 is 0.85 µM.

`O=[N+]([O-])c1ccccc1-n1cc(COc2ccc3ncnc(NCc4ccccc4)c3c2)nn1`: the half-maximal inhibitory concentration (IC50) was above 200 µM.

For `C#CCOc1ccc2ncnc(N3CCN(C)CC3)c2c1`, the IC50 was above 200 µM.

Turning to `O=[N+]([O-])c1cccc(Nc2ncnc3ccc(OCc4cn(-c5ccccc5[N+](=O)[O-])nn4)cc23)c1`, the IC50 was above 200 µM.

Take `CN1CCN(c2ncnc3ccc(OCc4cn(-c5ccccc5[N+](=O)[O-])nn4)cc23)CC1`: the IC50 is 142 µM.

For the compound `C#CCOc1ccc2ncnc(NCc3ccccc3)c2c1`, the IC50 is above 200 µM.

Turning to `CN1CCN(c2ncnc3ccc(OCc4cn(-c5cccc([N+](=O)[O-])c5)nn4)cc23)CC1`, the IC50 is above 200 µM.

Consider `O=[N+]([O-])c1cccc(-n2cc(COc3ccc4ncnc(NCc5ccccc5)c4c3)nn2)c1`, for which the IC50 worked out at 94.1 µM.

System in another assay: not listed separately
The experiment in a line: Cytotoxicity against human Lu1 cells assessed as reduction in cell viability by MTT assay. It counts as functional, cell-based. On the technique in general: Tetrazolium dyes change colour on reduction, which living cells bring about.
With `Cc1c2ccncc2c(C)c2c1[nH]c1ccccc12` [ELLIPTECINE], the IC50 stood at 1.3 µM.

On to `O=[N+]([O-])c1ccccc1-n1cc(COc2ccc3ncnc(NCc4ccccc4)c3c2)nn1`, for which the IC50 is above 200 µM.

Consider `C#CCOc1ccc2ncnc(N3CCN(C)CC3)c2c1`, for which the IC50 was above 200 µM.

Regarding `O=[N+]([O-])c1cccc(Nc2ncnc3ccc(OCc4cn(-c5ccccc5[N+](=O)[O-])nn4)cc23)c1`, the IC50 was above 200 µM.

Take `CN1CCN(c2ncnc3ccc(OCc4cn(-c5ccccc5[N+](=O)[O-])nn4)cc23)CC1`: the IC50 was above 200 µM.

`C#CCOc1ccc2ncnc(NCc3ccccc3)c2c1`: the IC50 was above 200 µM.

With `CN1CCN(c2ncnc3ccc(OCc4cn(-c5cccc([N+](=O)[O-])c5)nn4)cc23)CC1`, the IC50 is above 200 µM.

For the compound `O=[N+]([O-])c1cccc(-n2cc(COc3ccc4ncnc(NCc5ccccc5)c4c3)nn2)c1`, the IC50 was above 200 µM.
